The test system of data set [1] is methicillin resistant Staphylococcus aureus (MRSA). Briefly: in vitro antimicrobial evaluation (modified CLSI method). The format is cell-based. The following applies: IC50 from percent growth versus test concentration. The method, then: The in vitro antimicrobial activity for the isolated glycosides is represented in FIG. 1. A modified version of CLSI (formerly NCCLS) method was used for the in vitro evaluation of test samples. Duplicate samples were transferred to 96-well microplates after diluting with 0.9% saline. The microbial cell suspensions were to give the desired target inocula after addition to the samples. Media and solvent controls were included in each assay. The IC50 was calculated by plotting percent growth versus test concentration.

Data set [2] deals with Methicillin-resistant Staphylococcus aureus. Briefly: In vivo MRSA assay, thigh infection in neutropenic mice. The following applies: for reduction compared to vehicle control: 48 hours; for number of MRSA cfu per gram of muscle tissue: sacrificed after 48 hours. More on the design: species or system Mice (CD-1). The procedure:
The in vivo antimicrobial activity for the isolated glycosides is represented in FIGS. 2A and 2B. Mice (CD-1) were purchased from Harlan Inc. and acclimatized up to 5 days before use. Food and water were available ad libitum throughout the study. They were rendered neutropenic by two injections of cyclophosphamide (100 mg/kg) given intraperitoneally, one and four days before infection. A volume of 50 uL suspension of Methicillin-resistant Staphylococcus aureus (1.5×10^6 live organisms) was injected intramuscularly (1M) into each of the two rear thighs. Each thigh was considered as an individual data point (total of 4 data points for each treatment). These mice were randomly distributed into the control or treatment groups (n=2/group).
Treatment with the test compound (1) was initiated via the intraperitoneal route 2 hrs after thigh inoculation. Control animals were concurrently administered saline (mock treatment) or vancomycin in the same volume as those receiving compound (1). All animals were sacrificed after 48 hours by CO2 inhalation. Immediately following sacrifice, thigh tissue was collected from the animals, weighed, and homogenized in 5.0 mL of saline. Thigh muscle homogenate was then processed for microbiological assay to determine the number of MRSA cfu per gram of muscle tissue.

For a further data set, the system named is MRSA. The following applies: background statement; cited from earlier work.
Data set [3] can be described thus: preliminary maximum tolerated dose experiment. The format is in vivo. The following applies: maximum of 20 mg/kg IP for two days. The method, then:
The number of MRSA isolated from vancomycin treated animals was 2.2×10^7 g of tissue, a reduction of 72% compared to vehicle control. Similarly, the number of MRSA recovered after treatment with compound (1) at 3 mg/kg and 15 mg/kg were 2.6×10^7 and 1.8×10^7 respectively, which correspond to a reduction of 67% and 78% as compared to vehicle control. […] To determine the maximum tolerated dose in the preliminary experiment, a maximum of 20 mg/kg of compound (1) was giving IP for two days.

[4] abbreviates: vancomycin control, dose not given.

We go through 3 molecules from patent US20100273726A1, “METHICILLIN-RESISTANT STAPHYLOCOCCUS AUREUS ACTIVE METABOLITES ISOLATED FROM LAURUS NOBILIS AND COMBINATIONS THEREOF” (TRITON BIOPHARMA, priority 2009, published 2010).

In the case of `C[C@@H]1O[C@@H](Oc2c(-c3ccc(O)cc3)oc3cc(O)cc(O)c3c2=O)[C@H](OC(=O)/C=C\c2ccc(O)cc2)[C@H](OC(=O)/C=C\c2ccc(O)cc2)[C@H]1O` [compound 4, kaempferol 3-O-α-L-(2″,3″-di-Z-p-coumaroyl)rhamnoside], the “in vitro activity (rank among the four compounds)” value in data set [1] is “most potent”.

With `CN[C@H](CC(C)C)C(=O)N[C@H]1C(=O)N[C@@H](CC(N)=O)C(=O)N[C@H]2C(=O)N[C@H]3C(=O)N[C@H](C(=O)N[C@H](C(=O)O)c4cc(O)cc(O)c4-c4cc3ccc4O)[C@H](O)c3ccc(c(Cl)c3)Oc3cc2cc(c3O[C@@H]2O[C@H](CO)[C@@H](O)[C@H](O)[C@H]2O[C@H]2C[C@](C)(N)[C@H](O)[C@H](C)O2)Oc2ccc(cc2Cl)[C@H]1O` [vancomycin, reference compound], in data set [2] (setting [4]), the “reduction compared to vehicle control” value is on record as 72% and the “number of MRSA cfu per gram of muscle tissue” value is 2.2×10^7 cfu/g. Besides, the success rate in the data set with MRSA was 35-57%.

`C[C@@H]1O[C@@H](Oc2c(-c3ccc(O)cc3)oc3cc(O)cc(O)c3c2=O)[C@H](OC(=O)/C=C/c2ccc(O)cc2)[C@H](OC(=O)/C=C/c2ccc(O)cc2)[C@H]1O` [compound 1, kaempferol 3-O-α-L-(2″,3″-di-E-p-coumaroyl)rhamnoside]: the “number of MRSA cfu per gram of muscle tissue” value in data set [2] (3 mg/kg intraperitoneal, 2 hrs after inoculation) is 2.6×10^7 cfu/g; in data set [2] (15 mg/kg intraperitoneal, 2 hrs after inoculation), 1.8×10^7 cfu/g. Besides, the “reduction compared to vehicle control” value in data set [2] (3 mg/kg intraperitoneal) is on record as 67%; in data set [2] (15 mg/kg intraperitoneal), 78%. In data set [3], the “acute toxicity / untoward effect” value is “No untoward effect”.
